This is an account of results in patent US12109218B2, “Compositions of grapiprant and methods for using the same” (ARATANA THERAPEUTICS, INC., priority 2014, dated 2024).

Series [1] is described as follows: Pharmacokinetics of capsule, suspension and tablets in dogs (Example 3). Type of series: in vivo, dog. Conditions: male dogs; for AUC(0-t) / AUC(0-inf) / Cmax / Tmax / half-life: dog, mean; for AUC(0-t): in vivo; for AUC(0-inf) / Cmax / Tmax / half-life: serum; for AUC0-∞/Dose / Cmax/Dose: dose-normalized mean. The procedure:
The objective of this study was to compare the pharmacokinetic profile of several tablet formulations of grapiprant to capsule and aqueous methylcellulose suspension formulations of grapiprant with 20-mg doses. Appropriate amounts of the test article/excipient mixture were placed into gelatin capsules to provide each animal with 20 mg of grapiprant. As the grapiprant content in the excipient blend was 45% of the mixture weight, the total weight of the blend in each capsule was 0.0440 g. The weight tolerance was within ±0.005 g of the nominal capsule content weight.
For the aqueous suspensions (Group 2), the vehicle was 0.5% methyl cellulose (400 centipoise) in water. A 0.3-mg/mL suspension of grapiprant was prepared by adding grapiprant to a calibrated beaker and adding about 60-90% of the 0.5% aqueous methylcellulose to the beaker. A homogenizer was used to blend the material. A stir bar was added to the beaker, and the suspension was stirred for about 5 minutes. The stir bar was removed temporarily to adjust the volume with additional vehicle, and then the suspension was stirred for another 5 minutes before being transferred to a labeled dosing container. The formulation was continuously stirred at the time of dose administration.
Statistical analyses were conducted to determine differences in Cmax, Tmax, and AUCmax Values were normalized by mg/kg, and group means and standard deviations were calculated for numeric data. The actual administered doses ranged from 1.81 to 2.82 mg/kg, and averaged 2.2 mg/kg. No animal was found dead or deemed moribund during the study. All animals were normal at the scheduled observation time of 2 hours postdose.

Series [2] has as its system meniscal release model of osteoarthritis. The series is described as follows: Meniscal release model of osteoarthritis in dogs (Example 8). The format is in vivo. The procedure:
Twenty intact adult female hounds underwent surgical meniscal release of the right stifle and were maintained for at least 8 weeks to allow osteoarthritis to develop. […] Animals were randomized into three groups: negative control (n=6), positive control (n=7) treated with 5 mg/kg firocoxib daily, and grapiprant (n=7) dosed once daily at 30 mg/kg. Dosing was based on baseline bodyweight.
Baseline physical exams, bodyweights, hematology, serum chemistry and urinalysis were obtained on study Day −1 and repeated on Day 13. Orthopedic assessments were conducted on Day −1, Day 2, Day 6, and Day 13, including a kinetics assessment using the GAITRite system to determine left hindlimb: right hindlimb ratios for peak pressure, stride length, step length, and stance time, a 5-point scale lameness evaluation, VAS assessments of right hindlimb function, right stifle pain and effusion, and comfortable range of motion measurements of both stifles using a goniometer.

The mark [3] stands for this setting: Day 0, Group 1: single oral 20 mg API in capsule.
The mark [4] stands for this setting: Day 0, Group 2: single oral 2 mg/kg, 0.3 mg/mL methylcellulose suspension.
[5] abbreviates: Day 0, Group 1: 20 mg API in capsule.
The mark [6] stands for this setting: Day 0, Group 2: methylcellulose suspension.

As to `CCc1nc2c(C)nc(C)cc2n1-c1ccc(CCNC(=O)NS(=O)(=O)c2ccc(C)cc2)cc1` [grapiprant, N-{2-[4-(2-ethyl-4,6-dimethyl-1H-imidazo[4,5-c]pyridin-1-yl)phenyl]ethyl}-N′-[(4-methylphenyl)sulfonyl]urea], in series [1] (setting [3]), the AUC(0-t) is 1580 ng·h/mL, the AUC(0-inf) amounted to 1640 ng·h/mL, the concentration peaked (Cmax) at 804 ng/mL and the Tmax stood at 1.08 h. The molecule further had a half-life in series [1] (setting [3]) of 5.5 h. In addition, in series [1] (setting [4]), the AUC(0-t) amounted to 1650 ng·h/mL, the AUC(0-inf) was found to be 1870 ng·h/mL, the peak level (Cmax) was 751 ng/mL and the Tmax was 0.786 h. In series [1] (setting [4]), this molecule showed a half-life of 4.1 h. Moreover, in series [1] (setting [5]), the “AUC0-∞/Dose” value is given as 724 (hr*ng/mL)/(mg/kg) and the Cmax/Dose is given as 359 (ng/mL)/(mg/kg). Also, in series [1] (setting [6]), the “AUC0-∞/Dose” value is on record as 937 (hr*ng/mL)/(mg/kg) and the Cmax/Dose is recorded as 376 (ng/mL)/(mg/kg). Also, the safety result in series [2] (30 mg/kg) is “considered safe for at least a 14-day treatment period”. In addition, in series [2] (30 mg/kg once daily), the lameness scores entry is “lower lameness scores in the grapiprant treated group on Day 2 compared to the negative and positive control groups”; the pain scores entry is “statistically significant lower pain scores on Days 2 and 6 compared to baseline”; the “serum total protein, albumin, and globulin” value is “decreases in mean total protein, albumin, and globulin”. Moreover, the “amelioration of lameness and pain” value in series [2] (30 mg/kg over 14 days) is “effective at day 2 in ameliorating lameness and pain”.

For orientation: AUC(0-t) means the area under the concentration-time curve up to a stated or last time point. High values mean more exposure, low ones less exposure. For orientation: AUC(0-inf) means total exposure, with the tail of the curve extrapolated. A low value points to less exposure. The Cmax is the peak of the concentration-time curve. What is called Tmax is the time at which the peak concentration occurs. Broadly, the half-life is the time needed for the level to fall by half in the phase considered.
